The results in this text go back to ChEMBL document CHEMBL1131653, “Syntheses of D- and L-myo-inositol 1,2,4,5-tetrakisphosphate and stereoselectivity of the I(1,4,5)P3 receptor binding” (Bioorg Med Chem Lett, 1998).

The target in the test is Inositol 1,4,5-trisphosphate-gated calcium channel ITPR3 (Bos taurus, UniProt Q8WN95). Kind of test: Binding affinity towards Inositol 1,4,5-trisphosphate receptor was evaluated by the standard competitive binding assay using 1.25 nM [3H]D-I(1,4,5)P3 binding protein, prepared from bovine adrenal cortex. The format is tissue-based.
Sequence of Inositol 1,4,5-trisphosphate-gated calcium channel ITPR3 (Q8WN95 whole entry): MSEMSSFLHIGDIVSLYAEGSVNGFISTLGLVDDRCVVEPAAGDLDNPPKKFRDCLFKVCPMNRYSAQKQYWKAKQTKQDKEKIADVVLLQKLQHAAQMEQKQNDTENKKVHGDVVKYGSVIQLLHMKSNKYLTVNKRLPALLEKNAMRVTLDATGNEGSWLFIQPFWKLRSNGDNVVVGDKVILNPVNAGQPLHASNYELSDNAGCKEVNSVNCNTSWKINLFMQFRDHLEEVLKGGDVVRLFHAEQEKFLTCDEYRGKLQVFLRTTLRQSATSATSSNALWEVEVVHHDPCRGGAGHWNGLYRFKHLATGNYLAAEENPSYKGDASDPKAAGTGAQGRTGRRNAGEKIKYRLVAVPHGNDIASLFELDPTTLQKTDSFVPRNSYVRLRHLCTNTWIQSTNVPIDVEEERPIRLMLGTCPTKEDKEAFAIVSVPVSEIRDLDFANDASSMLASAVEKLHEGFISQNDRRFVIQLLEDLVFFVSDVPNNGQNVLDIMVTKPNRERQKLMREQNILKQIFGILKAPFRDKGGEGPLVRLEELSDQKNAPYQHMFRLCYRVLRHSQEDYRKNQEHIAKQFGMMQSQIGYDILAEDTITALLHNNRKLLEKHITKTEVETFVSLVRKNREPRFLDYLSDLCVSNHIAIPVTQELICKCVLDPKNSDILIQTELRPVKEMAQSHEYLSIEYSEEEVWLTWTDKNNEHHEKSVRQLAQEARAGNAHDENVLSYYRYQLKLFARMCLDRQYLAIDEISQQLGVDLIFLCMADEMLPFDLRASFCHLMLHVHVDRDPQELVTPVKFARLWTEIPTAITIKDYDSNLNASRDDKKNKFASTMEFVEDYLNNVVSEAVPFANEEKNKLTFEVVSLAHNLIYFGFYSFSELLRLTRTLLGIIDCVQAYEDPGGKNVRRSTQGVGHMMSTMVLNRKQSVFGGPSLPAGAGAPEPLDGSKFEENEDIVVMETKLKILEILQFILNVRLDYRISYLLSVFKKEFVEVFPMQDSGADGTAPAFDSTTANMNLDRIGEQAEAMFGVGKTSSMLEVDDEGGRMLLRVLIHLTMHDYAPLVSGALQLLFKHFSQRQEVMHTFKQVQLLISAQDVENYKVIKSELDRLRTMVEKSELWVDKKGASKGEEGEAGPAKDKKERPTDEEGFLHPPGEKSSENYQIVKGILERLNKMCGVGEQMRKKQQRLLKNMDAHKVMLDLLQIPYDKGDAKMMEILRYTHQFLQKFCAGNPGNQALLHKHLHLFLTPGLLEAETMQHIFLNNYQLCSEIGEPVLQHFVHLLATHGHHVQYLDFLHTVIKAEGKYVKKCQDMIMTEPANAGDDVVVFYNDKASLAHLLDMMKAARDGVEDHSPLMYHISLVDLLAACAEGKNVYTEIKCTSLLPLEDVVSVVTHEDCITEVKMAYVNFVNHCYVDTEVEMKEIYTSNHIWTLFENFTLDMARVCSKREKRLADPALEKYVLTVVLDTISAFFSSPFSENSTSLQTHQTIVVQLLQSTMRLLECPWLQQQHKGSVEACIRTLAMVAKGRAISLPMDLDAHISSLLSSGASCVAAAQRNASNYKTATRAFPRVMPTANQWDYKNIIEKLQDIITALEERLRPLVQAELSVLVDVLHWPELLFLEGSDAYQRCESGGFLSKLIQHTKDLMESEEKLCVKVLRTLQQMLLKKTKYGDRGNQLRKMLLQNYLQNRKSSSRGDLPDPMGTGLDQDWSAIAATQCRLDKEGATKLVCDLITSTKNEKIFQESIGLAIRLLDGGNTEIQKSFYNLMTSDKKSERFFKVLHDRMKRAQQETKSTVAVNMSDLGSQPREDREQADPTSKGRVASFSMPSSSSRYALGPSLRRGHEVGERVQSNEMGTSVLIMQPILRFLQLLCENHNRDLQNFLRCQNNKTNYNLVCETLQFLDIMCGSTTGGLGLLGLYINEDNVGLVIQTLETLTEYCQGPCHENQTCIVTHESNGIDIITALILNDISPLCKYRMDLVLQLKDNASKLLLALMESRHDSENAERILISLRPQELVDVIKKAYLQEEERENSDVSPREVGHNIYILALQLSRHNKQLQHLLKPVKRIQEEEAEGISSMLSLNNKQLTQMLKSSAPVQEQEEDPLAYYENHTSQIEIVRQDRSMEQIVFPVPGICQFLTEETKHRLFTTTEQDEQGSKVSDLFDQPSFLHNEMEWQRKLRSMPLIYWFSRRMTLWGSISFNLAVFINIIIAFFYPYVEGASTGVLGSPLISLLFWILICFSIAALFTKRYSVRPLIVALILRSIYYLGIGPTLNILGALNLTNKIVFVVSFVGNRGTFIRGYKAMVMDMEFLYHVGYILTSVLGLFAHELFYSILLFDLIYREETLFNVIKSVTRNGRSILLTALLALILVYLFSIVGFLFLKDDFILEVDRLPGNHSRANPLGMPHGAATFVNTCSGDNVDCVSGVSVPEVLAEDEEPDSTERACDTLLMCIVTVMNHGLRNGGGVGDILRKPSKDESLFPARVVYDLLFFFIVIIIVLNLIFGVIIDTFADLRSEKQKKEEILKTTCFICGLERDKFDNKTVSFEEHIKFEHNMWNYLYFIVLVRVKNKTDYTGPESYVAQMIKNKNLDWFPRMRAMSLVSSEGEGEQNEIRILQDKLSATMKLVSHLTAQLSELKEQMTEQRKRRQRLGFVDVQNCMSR

The IC50 is the midpoint of a concentration-inhibition curve. With `O=P(O)(O)O[C@@H]1[C@@H](O)[C@H](OP(=O)(O)O)[C@@H](OP(=O)(O)O)[C@H](O)[C@@H]1OP(=O)(O)O`, the 50% inhibitory concentration (IC50) is 598 nM.

As to `O=P(O)(O)O[C@@H]1[C@@H](O)[C@@H](OP(=O)(O)O)[C@@H](OP(=O)(O)O)[C@H](O)[C@H]1OP(=O)(O)O`, the IC50 worked out at 13.4 nM.
